We go through one compound from PubChem BioAssay AID623879 (Vanderbilt Specialized Chemistry Center, 2012).

This experiment deals with Metabotropic glutamate receptor 3 (Rattus norvegicus) (UniProt P31422). In words: rat mGlu3 allosteric modulation, SAR follow-up, selectivity assay for mGlu4 PAM optimization project, cell-based, GIRK thallium flux (AID 623879). The settings on record: rat mGlu3 cells, glutamate CRC shift, at 10 µM.

Structures are written as SMILES. The source made the active and inactive calls.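 How the source made its calls: active means fold shift at least 2 as potentiator or at most 0.5 as antagonist, actives on both sides; inactive means fold shift between 0.5 and 2.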

Sequence of Metabotropic glutamate receptor 3 (Rattus norvegicus) (P31422 whole entry, looked up): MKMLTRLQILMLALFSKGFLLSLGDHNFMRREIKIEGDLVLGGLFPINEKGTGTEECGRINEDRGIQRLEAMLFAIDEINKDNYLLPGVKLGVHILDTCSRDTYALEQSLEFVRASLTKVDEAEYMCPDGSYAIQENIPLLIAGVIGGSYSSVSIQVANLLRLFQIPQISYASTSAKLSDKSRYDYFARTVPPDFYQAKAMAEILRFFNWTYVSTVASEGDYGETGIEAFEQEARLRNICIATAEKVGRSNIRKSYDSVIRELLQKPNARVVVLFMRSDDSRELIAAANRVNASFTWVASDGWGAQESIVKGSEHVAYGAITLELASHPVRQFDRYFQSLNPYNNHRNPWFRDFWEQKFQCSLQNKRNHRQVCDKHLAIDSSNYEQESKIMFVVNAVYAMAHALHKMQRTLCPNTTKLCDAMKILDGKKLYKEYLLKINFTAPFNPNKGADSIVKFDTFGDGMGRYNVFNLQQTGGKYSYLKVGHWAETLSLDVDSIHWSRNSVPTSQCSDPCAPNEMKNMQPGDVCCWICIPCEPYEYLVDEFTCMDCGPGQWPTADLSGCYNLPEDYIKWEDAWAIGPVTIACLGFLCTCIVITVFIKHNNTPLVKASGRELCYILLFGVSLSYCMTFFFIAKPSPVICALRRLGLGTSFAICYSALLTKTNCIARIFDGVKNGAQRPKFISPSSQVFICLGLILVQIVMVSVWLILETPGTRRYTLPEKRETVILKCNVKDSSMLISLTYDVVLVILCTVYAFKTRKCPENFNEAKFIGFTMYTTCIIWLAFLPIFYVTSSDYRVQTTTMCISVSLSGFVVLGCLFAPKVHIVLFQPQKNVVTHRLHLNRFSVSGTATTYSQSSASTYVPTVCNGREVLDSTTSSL

In the case of `O=C(Nc1cccc(Cl)c1)c1ccccn1`, the fold shift is 0.897 (inactive). Further, the max response (measured here: glutamate max response with compound, stronger effect = higher value) turned out to be 98.7%.
